Reference: patent US6436960B1, “Farnesyl transferase inhibitors having a piperidine structure and process for preparation thereof” (LG Chemical Ltd., priority 1998, dated 2002)

How the values were obtained:
Ras farnesyl transferase [1] = target: T1, Ras farnesyl transferase (Homo sapiens, UniProt P49354+P49356); assay: in vitro inhibitory activity for Ras farnesyl transferase, H-Ras substrate; assay type: biochemical
T1 construct: made in house
Method: (§1) In the present experiment, Ras farnesyl transferase produced by genetic recombination techniques according to the improved Pompliano's method (Pompliano et al., Biochemistry, 1992, 31, 3800) was used, and Ras substrate(Ras-CVLS) protein described in Korean Patent Appln. No. 97-14409 was used after it has been purified according to the known method(see, Chung et al., Biochimica et Biophysica Acta, 1992, 278, 1129).
(§2) The enzyme reaction was performed in 50 μl of 50 mM Soduam HEPES buffer solution containing 25 mM of potassium chloride, 25 mM of magnesium chloride, 10 mM of DTT and 50 μM of zinc chloride. 1.5 μM of Ras substrate protein, 0.15 μM of tritium-farnesylpyrophosphate and 4.5 nM of farnesyl transferase were used.
(§3) More specifically, in the initial step, farnesyl transferase was added to the above buffer solution, reaction was maintained for 30 minutes at 37° C. and then the reaction was stopped by adding 1 ml of ethanol solution containing 1M HCl. The formed precipitates were adsorbed to GF/B filter using Hopper harvestor(Hopper #FH 225V) for filter-binding, washed with ethanol, and then radioactivity of the dried filter was measured using LKB β counter. Enzyme titer was measured in the unsaturated state of substrate where the concentrations of Ras substrate protein and farnesyl transferase have quantitative relationship. The compound according to the present invention dissolved in dimethyl sulfoxide(DMSO) was added to the reaction solution in an amount of less than 5% of the total reaction solution, and then the enzyme inhibitory activity thereof was measured. The enzyme inhibitory activity was represented by percentage of the amount of farnesyl incorporated into the Ras substrate protein in the presence of the test compound to that in the absence of the test compound. IC50 of the test compound was defined as the concentration at which 50% of the enzyme activity was inhibited.

Ras farnesyl transferase [2] = target: T1, Ras farnesyl transferase; assay: in vitro inhibitory activity for Ras farnesyl transferase, K-Ras substrate; assay type: biochemical
Method: as §1, with “and Ras substrate(Ras-CVLS) protein described in Korean Patent” left out
as §2, §3

Ras farnesyl transferase [3] = target: T2, Ras farnesyl transferase (Rattus norvegicus, UniProt Q02293+Q04631); assay: in vivo (cellular) Ras farnesyl transferase inhibitory activity, Rat2 cells expressing C-Harvey-Ras; assay type: cell-based
T2 construct: endogenous in cells; host or cells: Rat2 fibroblasts transformed with C-Harvey-Ras, or with H-Ras carrying the K-Ras C-terminal polybasic lysine domain
Method: (§4) In the present experiment, Rat2 cell line which expresses C-Harvey-Ras protein having transforming activity and Rat2 cell line(Korean patent application No. 97-14409) which is transformed with fused protein of H-Ras substituted with polybasic lysine domain at C-terminus of K-Ras were used. The experiment was performed by the modified Declue's method(Declue. J. E. et al., Cancer Research, 1991, 51, 712). Hereinafter, the experimental method will be described in more detail.
(§5) 3×10^5 cells of transformed Rat2 fibroblast cell line were sprayed on 60 mm cell cultivation dish and cultivated for 48 hours in a cell incubator at 37° C. and after 50% or more of density was reached, it was treated with the test compounds. The compound according to the present invention dissolved in dimethylsulfoxide(DMSO) was used. 1% concentration of dimethylsulfoxide was used in both control and test groups. After 4 hours from the treatment with the compound, methionine labeled with 150 μCi of radioactive isotope [^35S] per 1 ml of medium was added and after cultivating for 20 hours, the cells were washed with physiological saline water. The cells were lysed using 1 ml of cold cell lysis buffer solution(50 mM of Sodium HEPES buffer solution containing 5 mM of magnesium chloride, 1 mM of DTT, 1% NP 40, 1 mM of EDTA, 1 mM of PMSF, 2 μM of leupeptin, 2 μM of pepstatin A and 2 μM of antipain) and the supernatant wherein the cells were lysed was obtained by high-velocity centrifugation of 12,000 g×5 minutes. The amount of radioisotope in the supernatant was measured and standardized to obtain a quantitative result in immunoprecipitation reaction and then, Y13-259, a monoclonal antiboby specifically binding to Ras protein(Furth, M. E. et al., J. Virol, 1982, 43, 294) was added and reacted for 15 hours at 4° C. Protein A(combined with goat anti-murine imunoglobulin antibody)-agarose suspension was added to the solution and reacted for 1 hour at 4° C. and then, to remove the unspecific binding product, immunoprecipitates were washed with a buffer solution (50 mM Tris chloride buffer solution containing 50 mM of sodium chloride, 0.5% of sodium dioxycholate, 0.5% of NP 40 and 0.1% of SDS). The precipitates were added to a buffer solution for electrophoresis and boiled and then, electrophoresis was performed using 13.5% of SDS polyacrylamide gel. After electrophoresis, the gel was fixed and dried. Then, the gel was exposed to X-ray film, developed and printed. From the result of the experiment, intensities of band of protein combined with or without farnesyl of Ras protein were measured, and the concentration of the test compound inhibiting 50% of farnesyl binding was defined as CIC50, an in vivo Ras farnesyl transferase inhibitory activity.

Ras farnesyl transferase [4] = target: T2, Ras farnesyl transferase; assay: in vivo (cellular) Ras farnesyl transferase inhibitory activity, Rat2 cells transformed with H-Ras fused with polybasic lysine domain of K-Ras; assay type: cell-based
Method: as §4, §5

[5] = recombinant Ras farnesyl transferase, H-Ras substrate, tritium-farnesylpyrophosphate, 30 minutes at 37° C., read-out: H-Ras IC50
[6] = recombinant Ras farnesyl transferase, K-Ras substrate, read-out: K-Ras IC50
[7] = Rat2 cell line expressing C-Harvey-Ras, concentration inhibiting 50% of farnesyl binding of Ras protein, read-out: H-Ras CIC50
[8] = Rat2 cell line transformed with H-Ras substituted with polybasic lysine domain at C-terminus of K-Ras, concentration inhibiting 50% of farnesyl binding, read-out: K-Ras CIC50

| Compound | IC50 (Ras farnesyl transferase [1]; [5]) [nM] | IC50 (Ras farnesyl transferase [2]; [6]) [nM] | IC50 (Ras farnesyl transferase [3]; [7]) [nM] | IC50 (Ras farnesyl transferase [4]; [8]) [nM] | IC50 (Ras farnesyl transferase [1]) [nM] | IC50 (Ras farnesyl transferase [2]) [nM] | IC50 (Ras farnesyl transferase [3]) [nM] | IC50 (Ras farnesyl transferase [4]) [nM] |
| --- | --- | --- | --- | --- | --- | --- | --- | --- |
| CN(C)CCN(C)C(=O)c1cn(Cc2cncn2CC2CCN(C(=O)OCc3ccccc3)CC2)cc1-c1cccc2ccccc12 [Compound 39, 1-[1-(-Benzyloxycarbonylpiperidin-4-yl)methyl-1H-imidazol-5-yl]methyl-3-{N-[2-(N,N-dimethylamino)ethyl]-N-methyl}carbamoyl-4-(naphthalen-1-yl)-1H-pyrrole] | 300 | 1500 | 1000 | 30000 to 100000 | – | – | – | – |
| COCCN(C)C(=O)c1cn(Cc2cncn2CC2CCN(C(=O)OCc3ccc(F)cc3)CC2)cc1-c1cccc2ccccc12 [Compound 24] | 6 | 15 | 10 to 100 | 1000 to 10000 | – | – | – | – |
| CN1CCN(C(=O)c2cn(Cc3cncn3CC3CCN(C(=O)OCc4ccc(F)cc4)CC3)cc2-c2cccc3ccccc23)CC1 [Compound 47] | 3.3 | 6 | 12.5 | 4000 | – | – | – | – |
| CCCCCCC(=O)N1CCC(Cn2cncc2Cn2cc(C(=O)N(C)CCOC)c(-c3cccc4ccccc34)c2)CC1 [Compound 12, 1-[1-(1-Heptanoyl-piperidin-4-ylmethyl)-1H-imidazol-5-ylmethyl]-3-[N-(2-methoxyethyl)-N-methyl]carbamoyl-4-(naphthalen-1-yl)-1H-pyrrole] | 1 to 10 | 10 to 1000 | 10 | 1000 to 50000 | – | – | – | – |
| COCCN(C)C(=O)c1cn(Cc2cncn2CC2CCN(C(=O)OCCC(C)C)CC2)cc1-c1cccc2ccccc12 [Compound 23] | 8 | 20 | 10 to 100 | 1000 to 10000 | – | – | – | – |
| O=C(c1ccn(Cc2cncn2CC2CCN(C(=O)OCc3ccccc3)CC2)c1)c1cccc2ccccc12 [Compound 36, 1-{1-[1-(Benzyloxycarbonyl)piperidin-4-yl]methyl-1H-imidazol-5-yl}methyl-3-(naphthalen-1-yl)carbonyl-1H-pyrrole] | – | – | – | – | 200 | > 100000 | 10000 | 50000 |
| CN1CCN(C(=O)c2cn(Cc3cncn3CC3CCN(C(=O)/C=C/c4ccccc4)CC3)cc2-c2cccc3ccccc23)CC1 [Compound 50] | 1.7 | 8 | 30 | 10000 to 50000 | – | – | – | – |
| CN1CCN(C(=O)c2cn(Cc3cncn3CC3CCN(C(=O)N4CCCc5ccccc54)CC3)cc2-c2cccc3ccccc23)CC1 [Compound 54, 3-(4-Methylpiperazin-1-yl)carbonyl-4-(naphthalen-1-yl)-1-{1-[1-(1,2,3,4-tetrahydroquinolin-1-ylcarbonyl)piperidin-4-yl]methyl-1H-imidazol-5-yl}methyl-1H-pyrrole] | 11 | 40 | 25 | 10000 to 50000 | – | – | – | – |
| COCCN(C)C(=O)c1cn(Cc2cncn2CC2CCN(C(=O)N(C)Cc3ccccc3)CC2)cc1-c1cccc2ccccc12 [Compound 30] | 2.5 | 6 | 10 to 100 | 1000 to 10000 | – | – | – | – |
| CS(=O)(=O)N1CCC(Cn2cncc2Cn2cc(C(=O)N3CCOCC3)c(-c3cccc4ccccc34)c2)CC1 [Compound 4, 1-[1-(1-Methylsulfonyl-piperidin-4-ylmethyl)-1H-imidazol-5-ylmethyl]-3-(morpholin-4-yl)carbonyl-4-(naphthalen-1-yl)-1H-pyrrole] | 3.6 | 26 | 10 to 100 | 10000 to 50000 | – | – | – | – |
| COCCN(C)C(=O)c1cn(Cc2cncn2CC2CCN(Cc3ccc(-c4ccccc4)cc3)CC2)cc1-c1cccc2ccccc12 [Compound 33] | 5 | 10 to 100 | 10 to 100 | 1000 to 10000 | – | – | – | – |
| COCCN(C)C(=O)c1cn(Cc2cncn2CC2CCN(C(=O)c3csc(C(C)C)n3)CC2)cc1-c1cccc2ccccc12 [Compound 29] | 2.5 | 10 to 100 | 10 to 100 | 10000 to 50000 | – | – | – | – |
